Where two headings read alike, the source gives them in different places.
How the values were obtained:
[1] = test system: peripheral blood mononuclear cells (PBMC); test: In vitro inhibition of PBMC proliferation; type: cell-based
[2] = test system: in vitro reconstituted human 3D skin with a corneum layer; details: 1% SLS, 10% Glycolic acid, cited from earlier work
[3] = test system: in vitro reconstituted human 3D skin with a corneum layer; test: Keratolytic effect, MTT assay on reconstituted human 3D skin; type: cell-based
Description: The assay was carried out on a three-dimensional reconstituted human skin model, composed of human epidermal keratinocytes that have been proliferating and differentiating in vitro in peculiar conditions in order to build up a well-differentiated stratum corneum. […] When the damage of the corneum layer is stronger, as it happens with keratolytic agents, the cytotoxic effects of the germinative layer are faster to develop. […] Thirty μL of each substance have been applied to the cell culture and incubation at 37° C. was performed for 15 and 120 minutes respectively.

SMILES	inhibition at 0.01 µM ([1]; Batch 1, 10 nM) [%]	inhibition at 0.01 µM ([1]; Batch 2, 10 nM) [%]	inhibition at 0.01 µM ([1]; Batch 3, 10 nM) [%]	inhibition at 0.01 µM ([1]; Batch 4, 10 nM) [%]	inhibition at 0.01 µM ([1]; Mean, 10 nM) [%]	cell death, as generally stated for the reference agents ([2]; after 15')	cell death, as generally stated for the reference agents ([2]; after 2 h)	cell death (cytotoxic effect) ([3]; after 2 hours, 1% SLS) [%]	cell death ([3]; at 15', 10% glycolic acid) [%]
C[C@H]1C[C@H]2[C@@H]3CCC4=CC(=O)C=C[C@]4(C)[C@@]3(F)[C@@H](O)C[C@]2(C)[C@@]1(O)C(=O)CO [Betamethasone, betamethasone]	87.7	85.7	79.4	88.5	85.3	–	–	–	–
CCCCCCCCCCCCOS(=O)(=O)[O-].[Na+] [SLS]	–	–	–	–	–	does not cause any cell death	about 30%	27.69	–
O=C(O)CO [glycolic acid]	–	–	–	–	–	50%	90%	–	45.86

Source: patent publication US20120156307A1, “MEDICAL USES OF NANOCLUSTERED WATER” (priority 2010, published 2012)
